Measured values published in US8067447B2, “Modulators of glucocorticoid receptor, AP-1, and/or NF-κB activity and use thereof” (Bristol-Myers Squibb Company, priority 2006, dated 2011).
Read-outs that look alike come from different tables or passages of the source.

Key:
[1] = target: T1, human full-length glucocorticoid receptor (Homo sapiens, UniProt P04150); test: Glucocorticoid Receptor Binding Assay (II), fluorescence polarization competitor kit (Fluormone GS1); conditions: cell lysate with recombinant human full-length GR, 1 nM Fluormone GS1, FP
T1 construct: a cell lysate containing recombinantly expressed human full-length glucocorticoid receptor; purchased PanVera Co., Madison, Wis; P2816
T1 sequence (P04150 1-777): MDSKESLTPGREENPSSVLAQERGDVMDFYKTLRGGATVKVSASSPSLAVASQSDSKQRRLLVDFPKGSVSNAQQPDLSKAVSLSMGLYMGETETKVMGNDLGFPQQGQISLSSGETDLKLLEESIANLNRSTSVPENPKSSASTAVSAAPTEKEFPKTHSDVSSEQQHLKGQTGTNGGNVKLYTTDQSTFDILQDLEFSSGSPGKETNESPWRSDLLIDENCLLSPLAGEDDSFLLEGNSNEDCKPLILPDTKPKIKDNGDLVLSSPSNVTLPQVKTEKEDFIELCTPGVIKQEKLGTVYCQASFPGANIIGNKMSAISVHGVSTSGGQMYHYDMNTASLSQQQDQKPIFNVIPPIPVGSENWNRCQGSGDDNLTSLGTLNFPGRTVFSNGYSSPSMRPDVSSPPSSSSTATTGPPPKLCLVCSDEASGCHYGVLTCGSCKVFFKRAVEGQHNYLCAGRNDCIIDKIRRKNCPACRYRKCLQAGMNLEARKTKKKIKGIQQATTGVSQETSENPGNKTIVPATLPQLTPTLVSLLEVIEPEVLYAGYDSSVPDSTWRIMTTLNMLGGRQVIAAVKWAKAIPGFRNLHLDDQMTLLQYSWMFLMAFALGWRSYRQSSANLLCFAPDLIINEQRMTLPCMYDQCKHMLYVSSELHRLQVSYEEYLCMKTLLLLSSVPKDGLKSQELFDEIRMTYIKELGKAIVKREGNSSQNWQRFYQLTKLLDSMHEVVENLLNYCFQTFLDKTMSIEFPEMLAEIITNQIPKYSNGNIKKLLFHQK
Description: In order to measure the binding of compounds on the glucocorticoid receptor a commercially available kit was used (Glucocorticoid receptor competitor assay kit, PanVera Co., Madison, Wis., P2816). Briefly, a cell lysate containing recombinantly expressed human full-length glucocorticoid receptor was mixed with a fluorescently labeled glucocorticoid (1 nM Fluormone GS1) in the presence or absence of test compound. After one hour at room temperature, the fluorescence polarization (FP) of the samples were measured.

[2] = system: AP-1 induced transcriptional activity; test: Cellular Transrepressional Assay (AP-1 luciferase reporter in A549 cells, PMA-activated); type: cell-based; conditions: A549 cells with 7x AP-1 luciferase reporter, 10 ng/ml PMA, read-out: AP-1 (EC50, nM) (Cellular Transrepression Assay)
In short: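 Test molecules spanning 0.1 nM to 40 μM were co-incubated 7 h with 10 ng/ml PMA in A549 cells stably carrying a 7× AP-1-driven luciferase plasmid. Repression, as % reduction of PMA-alone luminescence measured 10 min after reagent addition, was curve-fitted to give EC50s.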

SMILES | Ki [1] [nM] | EC50 ([2]; Homo sapiens, A549, 7 h) [nM] | EC50 ([2]; 7 hours) [nM]
CC(C)(C(=O)Nc1nncs1)C1(c2ccc3c(cnn3-c3ccc(F)cc3)c2)CCCCC1 [Example 101, 2-(1-(1-(4-Fluorophenyl)-1H-indazol-5-yl)cyclohexyl)-2-methyl-N-(1,3,4-thiadiazol-2-yl)propanamide] | 1 | 36 | 
CC(C)(C(=O)NC1CCC1)C(Cc1ccccc1)c1ccc2c(cnn2-c2ccc(F)cc2)c1 (stereo not shown) [Example 129, N-cyclobutyl-3-(1-(4-fluorophenyl)-1H-indazol-5-yl)-2,2-dimethyl-4-phenylbutanamide] | 0.87 | 106 | 
CC(C)(C(=O)Nc1nccs1)C(c1ccc(F)cc1)c1ccc2c(cnn2-c2ccc(F)cc2)c1 (stereo not shown) [Example 44, 3-(4-fluorophenyl)-3-(1-(4-fluorophenyl)-1H-indazol-5-yl)-2,2-dimethyl-N-(thiazol-2-yl)propanamide] | 2.4 | 14 | 
CC(C)(CO)CNC(=O)C(C)(C)C(Cc1ccccc1)c1ccc2c(cnn2-c2ccc(F)cc2)c1 (stereo not shown) [Example 134, 3-(1-(4-fluorophenyl)-1H-indazol-5-yl)-N-(3-hydroxy-2,2-dimethylpropyl)-2,2-dimethyl-4-phenylbutanamide] | 6 | > 10000 | 
Cc1ccc(CC(c2ccc3c(cnn3-c3ccc(F)cc3)c2)C(C)(C)C(=O)NC2CCCC2O)cc1 (stereo not shown) [Example 125, 3-(1-(4-fluorophenyl)-1H-indazol-5-yl)-N-(2-hydroxycyclopentyl)-2,2-dimethyl-4-p-tolylbutanamide] | 9.9 | > 10000 | 
CC(C)/C=C(\c1ccc2c(cnn2-c2ccc(F)cc2)c1)C(C)(C)C(=O)Nc1nncs1 [Example 139, (E)-3-(1-(4-Fluorophenyl)-1H-indazol-5-yl)-2,2,5-trimethyl-N-(1,3,4-thiadiazol-2-yl)hex-3-enamide] | 4.7 | 2500 | 
CC(C)(C(=O)NC1CCCC1O)C(Cc1ccccc1)c1ccc2c(cnn2-c2ccc(F)cc2)c1 (single isomer, unassigned) [Example 124-isomerC] | 2.1 |  | 1250
Cc1cc2c(cnn2-c2ccc(F)cc2)cc1CC(C)(C)C(=O)Nc1nncs1 [Example 105] | 5.6 | 1.9 | 
CC(C)(C(=O)N[C@@H]1CCC[C@H]1O)[C@@H](c1ccccc1)c1ccc2c(cnn2-c2ccc(F)cc2)c1 [Example 135, (S)-3-(1-(4-fluorophenyl)-1H-indazol-5-yl)-N-(2-hydroxycyclopentyl)-2,2-dimethyl-3-phenylpropanamide] | 0.6 | 40 | 
CC(C)(C(=O)NC1CCCC1)C(Cc1ccccc1)c1ccc2c(cnn2-c2ccc(F)cc2)c1 (single isomer, unassigned) [Example 131, N-cyclopentyl-3-(1-(4-fluorophenyl)-1H-indazol-5-yl)-2,2-dimethyl-4-phenylbutanamide] | 3 |  | > 10000
CC(C)(C(=O)Nc1nccs1)C(C)(C)c1ccc2c(cnn2-c2ccc(F)cc2)c1 [Example 113, 3-(1-(4-Fluorophenyl)-1H-indazol-5-yl)-2,2,3-trimethyl-N-(thiazol-2-yl)butanamide] | 5.1 | 107 | 

Results, then the compound that gave them:

Ki [1] [nM] | EC50 ([2]; Homo sapiens, A549, 7 h) [nM] | EC50 ([2]; 7 hours) [nM] | SMILES
22 | 135 |  | CC(C)(C(=O)Nc1nncs1)[C@@H](c1ccccc1)c1ccc2c(cnn2-c2ccc(F)cc2C(N)=O)c1 [Example 156, 2-(5-((S)-3-(1,3,4-Thiadiazol-2-ylamino)-2,2-dimethyl-3-oxo-1-phenylpropyl)-1H-indazol-1-yl)-5-fluorobenzamide]
1.7 | 523 |  | CC(C)(C(=O)Nc1nncs1)C(c1ccc2c(cnn2-c2ccc(F)cc2)c1)C1CC1 (stereo not shown) [Example 47, 3-cyclopropyl-3-(1-(4-fluorophenyl)-1H-indazol-5-yl)-2,2-dimethyl-N-(1,3,4-thiadiazol-2-yl)propanamide]
1.7 | 18 |  | CCCC(c1ccc2c(cnn2-c2ccc(F)cc2)c1)C(C)(C)C(=O)Nc1nncs1 (stereo not shown) [Example 46, 3-(1-(4-fluorophenyl)-1H-indazol-5-yl)-2,2-dimethyl-N-(1,3,4-thiadazol-2-yl)hexanamide]
18 |  | 5000 | O=C(Nc1nncs1)C(c1ccccc1)C(c1ccccc1)c1ccc2c(cnn2-c2ccc(F)cc2)c1 (single isomer, unassigned) [Example 145-isomerA, 3-(1-(4-fluorophenyl)-1H-indazol-5-yl)-2,3-diphenyl-N-(1,3,4-thiadiazol-2-yl)propanamide]
25 | 234 |  | CN(C)C(=O)Nc1cc(F)ccc1-n1ncc2cc([C@H](c3ccccc3)C(C)(C)C(=O)Nc3nncs3)ccc21 [Example 160, (3S)-3-(1-(2-(3,3-Dimethylureido)-4-fluorophenyl)-1H-indazol-5-yl)-2,2-dimethyl-3-phenyl-N-(1,3,4-thiadiazol-2-yl)propanamide]
1.8 | 3.9 |  | Cc1ccc(C(c2ccc3c(cnn3-c3ccc(F)cc3)c2)C(C)(C)C(=O)Nc2nncs2)cc1 (stereo not shown) [Example 51, 3-(1-(4-fluorophenyl)-1H-indazol-5-yl)-2,2-dimethyl-N-(1,3,4-thiadiazol-2-yl)-3-p-tolylpropanamide]
32 | 5000 |  | CC(C)(C(=O)Nc1nncs1)[C@@H](c1ccccc1)c1ccc2c(cnn2-c2ccc(F)cc2NC(N)=O)c1 [Example 161, (3S)-3-(1-(4-Fluoro-2-ureidophenyl)-1H-indazol-5-yl)-2,2-dimethyl-3-phenyl-N-(1,3,4-thiadiazol-2-yl)propanamide]
26 | > 10000 |  | COC(=O)c1ccc(-n2ncc3cc(C(c4ccccc4)C(C)(C)C(=O)Nc4nncs4)ccc32)cc1 (stereo not shown) [Example 88, methyl 4-(5-(3-(1,3,4-thiadiazol-2-ylamino)-2,2-dimethyl-3-oxo-1-phenylpropyl)-1H-indazol-1-yl)benzoate]
1.3 | 8.1 |  | CC(C)(C(=O)Nc1nncs1)C(c1cccc(F)c1)c1ccc2c(cnn2-c2ccc(F)cc2)c1 (stereo not shown) [Example 52, 3-(3-fluorophenyl)-3-(1-(4-fluorophenyl)-1H-indazol-5-yl)-2,2-dimethyl-N-(1,3,4-thiadiazol-2-yl)propanamide]
0.92 | 9.7 |  | Cc1cccc(C(c2ccc3c(cnn3-c3ccc(F)cc3)c2)C(C)(C)C(=O)Nc2nncs2)c1 (stereo not shown) [Example 50, 3-(1-(4-fluorophenyl)-1H-indazol-5-yl)-2,2-dimethyl-N-(1,3,4-thiadiazol-2-yl)-3-m-tolylpropanamide]
2.3 | 2 |  | O=C(Nc1nncs1)C(C1CCCC1)C(c1ccccc1)c1ccc2c(cnn2-c2ccc(F)cc2)c1 (stereo not shown) [Example 147, 2-cyclopentyl-3-(1-(4-fluorophenyl)-1H-indazol-5-yl)-3-phenyl-N-(1,3,4-thiadiazol-2-yl)propanamide]
0.35 | 73 |  | CC(C)(C(=O)Nc1nncs1)[C@@H](c1ccccc1)c1ccc2c(cnn2-c2ccc(F)cc2N)c1 [Example 159, (3S)-3-(1-(2-Amino-4-fluorophenyl)-1H-indazol-5-yl)-2,2-dimethyl-3-phenyl-N-(1,3,4-thiadiazol-2-yl)propanamide]
4 | 13 |  | O=C(Nc1nncs1)C1(C(c2ccccc2)c2ccc3c(cnn3-c3ccc(F)cc3)c2)CCCCC1 (stereo not shown) [Example 150, 1-((1-(4-fluorophenyl)-1H-indazol-5-yl)(phenyl)methyl)-N-(1,3,4-thiadiazol-2-yl)cyclohexanecarboxamide]
1.6 |  | 9 | CC(C(=O)Nc1nncs1)C(c1ccccc1)c1ccc2[nH]ncc2c1 (single isomer, unassigned) [151-diast A, 3-(1H-Indazol-5-yl)-2-methyl-3-phenyl-N-(1,3,4-thiadiazol-2-yl)propanamide]
1.3 | 2500 |  | C/C=C/CC(c1ccc2c(cnn2-c2ccc(F)cc2)c1)C(C)(C)C(=O)Nc1nncs1 (stereo not shown) [Example 55, (E)-3-(1-(4-fluorophenyl)-1H-indazol-5-yl)-2,2-dimethyl-N-(1,3,4-thiadiazol-2-yl)hept-5-enamide]
